Like-named read-outs stand apart in the source and are kept apart here.
Legend:
[1] = system: corn plants (variety NK OCTET); experiment: Reduced plant water use in corn (foliar spray, repeated weighing of pots); assay type: in vivo; conditions: Zea mays, corn plants sprayed at 500 μM, average of 6 pots
Experimental: Compounds were tested for their effect on reducing plant water use as follows. The compounds were applied by foliar spray to 12 day old corn plants (variety NK OCTET) grown in controlled environment plant growth chambers. All compounds were applied using an emulsifiable concentrate (EC) formulation that was diluted to the desired concentrations with water containing 0.4% of the adjuvant rape seed methyl ester. Plant water use during the day was assessed by repeated weighing of the pots in which the plants were grown before and after application of the compounds at the indicated times (expressed in days after application (DAA)). The water use data before application was used to correct any differences in water use arising due to non-treatment effects (e.g. due to differences in plant size). The untransformed water use values were subjected to an analysis of covariance, fitting the effect of treatment and using the baseline water use 1 day before application as a covariate. Application of the chemicals (0 DAA) takes place approximately between 08:00 and 09:30 a.m. WU is measured within day time (chamber light is on 06:00 to 20:00) at these timepoints: 0 DAA a.m. (10:30-12:50), 0 DAA p.m. (14:00-19:50), 1 DAA a.m. (07:30-12:50), 1 DAA p.m. (14:00-19:50), 2 DAA a.m. (07:30-12:50) and 2 DAA p.m. (14:00-19:50). The cumulative total WU (0-2.5 DAA) is calculated by summing the WU data mentioned above.

[2] = system: soybean plants (variety S20-G7); experiment: Reduced plant water use in soybean (foliar spray, repeated weighing of pots); assay type: in vivo; conditions: Glycine max, foliar, Table B1, sprayed at 500 μM, vs negative control
Summary of the method: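 Compounds in blank EC formulation diluted in water with EXTRAVON 1 g/20 L, foliar-sprayed on 12-day-old soybean in growth chambers. Water use from repeated pot weighing at a.m./p.m. periods over 0-2 DAA, summed to cumulative 0-2.5 DAA; ANCOVA with pre-application baseline covariate, relative to blank-formulation control.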

[3] = 0 h, water use during day time vs negative control, 0 DAA a.m. (10:30-12:50), read-out: % WU 0 DAA AM
[4] = 0 h, water use during day time vs negative control, 0 DAA p.m. (14:00-19:50), read-out: % WU 0DAA PM
[5] = 24 h, water use during day time vs negative control, 1 DAA a.m. (07:30-12:50), read-out: % WU 1DAA AM
[6] = 24 h, water use during day time vs negative control, 1 DAA p.m. (14:00-19:50), read-out: % WU 1DAA PM
[7] = 48 h, water use during day time vs negative control, 2 DAA a.m. (07:30-12:50), read-out: % WU 2 DAA AM
[8] = 48 h, water use during day time vs negative control, 2 DAA p.m. (14:00-19:50), read-out: % WU 2 DAA PM
[9] = 60 h, cumulative total water use 0-2.5 DAA (sum of the time points) vs negative control, read-out: % WU Total 0 to 2.5 DAA
[10] = 0 h, 0 DAA a.m. (10:30-12:50), read-out: % WU 0 DAA AM
[11] = 24 h, 1 DAA a.m. (7:30-12:50), read-out: % WU 1DAA AM
[12] = 24 h, 1 DAA p.m. (14:00-19:50), read-out: % WU 1DAA PM
[13] = 48 h, 2 DAA a.m. (07:30-12:50), read-out: % WU 2 DAA AM
[14] = 48 h, 2 DAA p.m. (14:00-19:50), read-out: % WU 2 DAA PM
[15] = 60 h, cumulative total WU (0-2.5 DAA), read-out: % WU Total 0 to 2.5 DAA

Structure (SMILES)	melting point	change in vivo at 500 µM [1, 3]	change in vivo at 500 µM [1, 4]	change in vivo at 500 µM [1, 5]	change in vivo at 500 µM [1, 6]	change in vivo at 500 µM [1, 7]	change in vivo at 500 µM [1, 8]	change in vivo at 500 µM [1, 9]	change in vivo at 500 µM [2, 10]	change in vivo at 500 µM [2, 11]	change in vivo at 500 µM [2, 12]	change in vivo at 500 µM [2, 13]	change in vivo at 500 µM [2, 14]	change in vivo at 500 µM [2, 15]
CCN1C(=O)CCc2cc(CNS(=O)(=O)c3ccc(C(F)(F)F)cc3)ccc21 [Compound 2.015, N-[(1-ethyl-2-oxo-3,4-dihydroquinolin-6-yl)methyl]-4-(trifluoromethyl)benzenesulfonamide]	180 to 181 °C	-8.9%	-3.4%	-4%	-2.6%	-1.9%	-1%	-2.9%						
CCN1C(=O)CCc2cc(CNS(=O)(=O)/C=C/c3ccccc3)ccc21 [Compound 2.051, (E)-N-[(1-ethyl-2-oxo-3,4-dihydroquinolin-6-yl)methyl]-2-phenyl-ethenesulfonamide]	134 to 137 °C	-13.2%	-8.5%	-10.7%	-8.6%	-8.7%	-6.5%	-9.1%						
CCN1C(=O)CCc2cc(CNS(=O)(=O)/C=C/c3cccc(Cl)c3)ccc21 [Compound 2.069, (E)-2-(3-chlorophenyl)-N-[(1-ethyl-2-oxo-3,4-dihydroquinolin-6-yl)methyl]ethenesulfonamide]	149 to 151 °C	-6.5%	-3.5%	-3.3%	-3.7%	-2.1%	-1.9%	-3.2%						
CCN1C(=O)CCc2cc(CNS(=O)(=O)/C=C/c3cccc(Br)c3)ccc21 [Compound 2.070, (E)-2-(3-bromophenyl)-N-[(1-ethyl-2-oxo-3,4-dihydroquinolin-6-yl)methyl]ethenesulfonamide]	144 to 147 °C	-8.1%	-4.1%	-6.1%	-5.5%	-4.8%	-3.8%	-5%						
CCCN1C(=O)CCc2cc(CNS(=O)(=O)c3ccc(Cl)cc3)ccc21 [Compound 3.004, 4-chloro-N-[(2-oxo-1-propyl-3,4-dihydroquinolin-6-yl)methyl]benzenesulfonamide]	138 to 139 °C	-17.3%	-12.5%	-14.1%	-12.9%	-11.8%	-10.7%	-12.8%						
CCCN1C(=O)CCc2cc(CNS(=O)(=O)c3ccccc3C)ccc21 [Compound 3.011, 2-methyl-N-[(2-oxo-1-propyl-3,4-dihydroquinolin-6-yl)methyl]benzenesulfonamide]	163 to 165 °C								-3.6%	-3.6%	-2.3%	-3.6%	-2.4%	-3%
CCCN1C(=O)CCc2cc(CNS(=O)(=O)c3ccc(C)cc3)ccc21 [Compound 3.012, 4-methyl-N-[(2-oxo-1-propyl-3,4-dihydroquinolin-6-yl)methyl]benzenesulfonamide]	153 to 154 °C								-43.9%	-1.8%	2.1%	1.7%	3%	-5.8%
CCCN1C(=O)CCc2cc(CNS(=O)(=O)c3ccc(OC(C)C)cc3)ccc21 [Compound 3.016, 4-isopropoxy-N-[(2-oxo-1-propyl-3,4-dihydroquinolin-6-yl)methyl]benzenesulfonamide]	138 to 139 °C								-3.6%	-1.3%	-0.5%	-1.1%	0%	-1.2%
CCCN1C(=O)CCc2cc(CNS(=O)(=O)c3ccccc3Br)ccc21 [Compound 3.017, 2-bromo-N-[(2-oxo-1-propyl-3,4-dihydroquinolin-6-yl)methyl]benzenesulfonamide]	157 to 159 °C	-5.8%	-3.1%	-3.1%	-2.5%	-1.8%	-2.1%	-2.7%						
CCCN1C(=O)CCc2cc(CNS(=O)(=O)/C=C/c3ccccc3)ccc21 [Compound 3.051, (E)-N-[(2-oxo-1-propyl-3,4-dihydroquinolin-6-yl)methyl]-2-phenyl-ethenesulfonamide]	165 to 168 °C	-11.2%	-6.4%	-8.1%	-5.5%	-5.4%	-4.3%	-6.2%						
CCCN1C(=O)CCc2cc(CNS(=O)(=O)/C=C/c3ccc(Br)cc3)ccc21 [Compound 3.052, (E)-2-(4-bromophenyl)-N-[(2-oxo-1-propyl-3,4-dihydroquinolin-6-yl)methyl]ethenesulfonamide]	150 to 152 °C	-9.6%	-4.6%	-4.5%	-4.5%	-2.2%	-2.5%	-4.1%						
CCCN1C(=O)CCc2cc(CNS(=O)(=O)c3cccs3)ccc21 [Compound 3.072, N-[(2-oxo-1-propyl-3,4-dihydroquinolin-6-yl)methyl]thiophene-2-sulfonamide]	151 to 153 °C								-39.4%	-45.9%	-40.9%	-39.8%	-32.2%	-40.1%
CCCN1C(=O)CCc2cc(CNS(=O)(=O)c3ccc(Cl)s3)ccc21 [Compound 3.073, 5-chloro-N-[(2-oxo-1-propyl-3,4-dihydroquinolin-6-yl)methyl]thiophene-2-sulfonamide]	144 to 147 °C								-44.6%	-54.9%	-52.1%	-53.3%	-48.7%	-51%
CCCN1C(=O)CCc2cc(CNS(=O)(=O)c3cccc4ccccc34)ccc21 [Compound 3.074, N-[(2-oxo-1-propyl-3,4-dihydroquinolin-6-yl)methyl]naphthalene-1-sulfonamide]	176 to 179 °C								-8.6%	0%	1%	-1.5%	0%	-1.4%
CCCn1c(=O)ccc2cc(CNS(=O)(=O)c3ccccc3)ccc21 [Compound 7.001, N-[(2-oxo-1-propyl-6-quinolyl)methyl]benzenesulfonamide]	204 to 206 °C								-17.1%	-9.1%	-6.9%	-6.9%	-2.5%	-8.8%
